# Experimental data from patent US9371319B2, “Pyrrolopyridineamino derivatives as MPS1 inhibitors” (priority 2011, dated 2016).
# Target: T1, full length MPS1 (Homo sapiens, UniProt P33981)
# T1 sequence (P33981 1-857): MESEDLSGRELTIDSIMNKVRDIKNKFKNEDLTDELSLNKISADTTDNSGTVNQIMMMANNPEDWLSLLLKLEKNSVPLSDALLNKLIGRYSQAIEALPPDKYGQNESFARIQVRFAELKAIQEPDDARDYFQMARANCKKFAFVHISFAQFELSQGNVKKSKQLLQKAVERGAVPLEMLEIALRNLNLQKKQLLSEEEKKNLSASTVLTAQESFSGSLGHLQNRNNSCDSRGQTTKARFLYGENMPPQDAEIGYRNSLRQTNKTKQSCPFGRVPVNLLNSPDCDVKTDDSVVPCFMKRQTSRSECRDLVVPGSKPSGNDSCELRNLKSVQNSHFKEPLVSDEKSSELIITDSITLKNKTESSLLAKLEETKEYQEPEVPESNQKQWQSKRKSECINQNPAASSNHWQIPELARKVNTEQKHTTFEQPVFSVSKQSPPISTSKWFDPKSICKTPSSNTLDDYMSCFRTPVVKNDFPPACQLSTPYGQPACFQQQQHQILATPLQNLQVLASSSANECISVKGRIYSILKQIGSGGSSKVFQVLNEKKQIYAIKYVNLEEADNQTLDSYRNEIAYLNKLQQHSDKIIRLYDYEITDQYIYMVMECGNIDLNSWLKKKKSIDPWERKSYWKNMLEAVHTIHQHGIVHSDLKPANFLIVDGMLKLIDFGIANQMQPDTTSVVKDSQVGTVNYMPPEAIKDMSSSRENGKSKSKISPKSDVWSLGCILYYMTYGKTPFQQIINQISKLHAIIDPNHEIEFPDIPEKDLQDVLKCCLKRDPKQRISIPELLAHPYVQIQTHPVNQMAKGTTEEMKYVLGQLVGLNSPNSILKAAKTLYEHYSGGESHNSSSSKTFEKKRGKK
# Test: biochemical
row,IC50 [nM],SMILES
1,92,"CN(C)C(=O)c1ccc(Nc2cc3c(cn2)cc(-c2cnn(C)c2)n3S(=O)(=O)C2CCCC2)c(Cl)c1 [Example 110, 3-Chloro-4-(1-(cyclopentylsulfonyl)-2-(1-methyl-1H-pyrazol-4-yl)-1H-pyrrolo[3,2-c]pyridin-6-ylamino)-N,N-dimethylbenzamide]"
2,19,Cn1cc(-c2cc3cnc(Nc4ccc(-c5ccnn5C)cc4Cl)cc3n2C(=O)OC(C)(C)C)cn1 [Example 44]
3,83,COCCn1c(-c2cnn(C)c2)cc2cnc(Nc3ccc(-c4cnc(C)n4C)cc3Cl)cc21 [Example 104]
4,4,Cn1cc(-c2cc3cnc(Nc4ccc(C(=O)N5CCCC5)cc4Cl)cc3n2C(=O)OC(C)(C)C)cn1 [Example 40]
5,128,"Cn1cc(-c2ccc(Nc3cc4[nH]c(-c5cnn(C)c5)c(Cl)c4cn3)c(Cl)c2)cn1 [Example 194, 3-Chloro-N-(2-chloro-4-(1-methyl-1H-pyrazol-4-yl)phenyl)-2-(1-methyl-1H-pyrazol-4-yl)-1H-pyrrolo[3,2-c]pyridin-6-amine]"
6,12,"COc1cc(C(=O)N2CCOCC2)ccc1Nc1cc2[nH]c(-c3cnn(C)c3)cc2cn1 [Example 118, (3-Methoxy-4-(2-(1-methyl-1H-pyrazol-4-yl)-1H-pyrrolo[3,2-c]pyridin-6-ylamino)phenyl)(morpholino)methanone]"
7,55,"COc1cc(CN(C)C)ccc1Nc1cc2[nH]c(-c3cnn(C)c3)cc2cn1 [Example 139, N-(4-((dimethylamino)methyl)-2-methoxyphenyl)-2-(1-methyl-1H-pyrazol-4-yl)-1H-pyrrolo[3,2-c]pyridin-6-amine]"
8,7,COc1cc(-c2cnn(C)c2)ccc1Nc1cc2c(cn1)cc(-c1cnn(C)c1)n2C(=O)OC(C)C [Example 102]
9,97,"CN(C)C(=O)c1ccc(Nc2cc3c(cn2)c(Cl)c(-c2cnn(C)c2)n3CC2CCCC2)c(Cl)c1 [Example 191, 3-Chloro-4-(3-chloro-1-(cyclopentylmethyl)-2-(1-methyl-1H-pyrazol-4-yl)-1H-pyrrolo[3,2-c]pyridin-6-ylamino)-N,N-dimethylbenzamide]"
10,12,"Cn1cc(-c2cc3cnc(Nc4ccc(C(=O)N5CCCC5)cc4Cl)cc3[nH]2)cn1 [Example 145, (3-Chloro-4-(2-(1-methyl-1H-pyrazol-4-yl)-1H-pyrrolo[3,2-c]pyridin-6-ylamino)phenyl)(pyrrolidin-1-yl)methanone]"
11,78,CN(C)C(=O)c1ccc(Nc2cc3c(cn2)cc(-c2cnn(C)c2)n3-c2ccccn2)c(Cl)c1 [Example 94]
12,43,Cc1ccc(-n2c(-c3cnn(C)c3)cc3cnc(Nc4ccc(C(=O)N(C)C)cc4Cl)cc32)nc1 [Example 92]
13,254,COc1ccccc1Nc1cc2c(cn1)cc(-c1cnco1)n2C(=O)OC(C)(C)C [Example 96]
14,53,"CN(C)C(=O)c1ccc(Nc2cc3c(cn2)c(Cl)c(-c2cnn(C)c2)n3CC2CC2)c(Cl)c1 [Example 192, 3-Chloro-4-(3-chloro-1-(cyclopropylmethyl)-2-(1-methyl-1H-pyrazol-4-yl)-1H-pyrrolo[3,2-c]pyridin-6-ylamino)-N,N-dimethylbenzamide]"
15,1,Cn1cc(-c2cc3cnc(Nc4ccc(-c5nncn5C)cc4Cl)cc3n2C(=O)OC(C)(C)C)cn1 [Example 18]
16,67,CN(C)C(=O)c1ccc(Nc2cc3c(cn2)cc(-c2cnn(C)c2)n3CC2CCCCC2)c(Cl)c1 [Example 71]

# Further lines, the molecule ahead of its results:
row,SMILES,IC50 [nM]
1,"COc1cc(F)ccc1Nc1cc2[nH]c(-c3cnn(C)c3)cc2cn1 [Example 157, N-(4-Fluoro-2-methoxyphenyl)-2-(1-methyl-1H-pyrazol-4-yl)-1H-pyrrolo[3,2-c]pyridin-6-amine]",119
2,"CS(=O)(=O)n1c(-c2cn[nH]c2)cc2cnc(Nc3ccc(F)cc3)cc21 [Example 187, N-(4-fluorophenyl)-1-(methylsulfonyl)-2-(1H-pyrazol-4-yl)-1H-pyrrolo[3,2-c]pyridin-6-amine]",6430
3,COc1ccc(-c2ccc(Nc3cc4c(cn3)cc(-c3cnn(C)c3)n4C(=O)OC(C)(C)C)c(Cl)c2)cn1 [Example 48],16
4,"COc1cc(C(=O)N2CC(OC)C2)ccc1Nc1cc2[nH]c(-c3cnco3)cc2cn1 [Example 179, (3-Methoxy-4-(2-(oxazol-5-yl)-1H-pyrrolo[3,2-c]pyridin-6-ylamino)phenyl)(3-methoxyazetidin-1-yl)methanone]",3
5,CC(C)OC(=O)n1c(-c2cnn(C)c2)cc2cnc(Nc3cc(-c4cnn(C)c4)ccc3Cl)cc21 [Example 89],287
6,"CC(=O)N1CCN(c2ccc(Nc3cc4[nH]c(-c5cn[nH]c5)cc4cn3)cc2)CC1 [Example 169, 1-(4-(4-(2-(1H-Pyrazol-4-yl)-1H-pyrrolo[3,2-c]pyridin-6-ylamino)phenyl)piperazin-1-yl)ethanone]",80
7,Cn1cc(-c2ccc(Cl)c(Nc3cc4c(cn3)cc(-c3cnn(C)c3)n4C(=O)OC(C)(C)C)c2)cn1 [Example 62],537
8,Cc1c(-c2ccc(Nc3cc4c(cn3)cc(-c3cnn(C)c3)n4C(=O)OC(C)(C)C)c(Cl)c2)cnn1C [Example 20],7
9,COc1cc(C(=O)N2CC(OC)C2)ccc1Nc1cc2c(cn1)cc(-c1cnco1)n2C(=O)OC(C)(C)C [Example 97],10
10,"COC1CN(C(=O)c2ccc(Nc3cc4[nH]c(-c5cnn(C)c5)cc4cn3)c(Cl)c2)C1 [Example 142, (3-Chloro-4-(2-(1-methyl-1H-pyrazol-4-yl)-1H-pyrrolo[3,2-c]pyridin-6-ylamino)phenyl)(3-methoxyazetidin-1-yl)methanone]",10
11,COc1cc(CN(C)C(=O)OC(C)(C)C)ccc1Nc1cc2c(cn1)cc(-c1cnn(C)c1)n2C(=O)OC(C)(C)C [Example 34],111
12,COc1cc(-c2cn(C)nc2C)ccc1Nc1cc2c(cn1)cc(-c1cnn(C)c1)n2C(=O)OC(C)C [Example 103],2
13,CN(C)C(=O)c1ccc(Nc2cc3c(cn2)cc(-c2cnn(C)c2)n3CC2CC2)c(Cl)c1 [Example 66],30
14,"Cn1cc(-c2cc3cnc(Nc4cccc(OCC#N)c4)cc3[nH]2)cn1 [Example 141, 2-(3-(2-(1-Methyl-1H-pyrazol-4-yl)-1H-pyrrolo[3,2-c]pyridin-6-ylamino)phenoxy)acetonitrile]",132
